# Values of other authors in US6906044B2, “Regeneration of articular cartilage damaged by grade I and II osteoarthritis by means of the intraarticular application of a mixture of sodium hyaluronate and chondroitin sulfate in a gel vehicle” (Alcon, Inc., priority 2001, dated 2005).
# Test system: injured knees of the horses
# Settings: observed by veterinarians at racetracks
substance,measurement,value
sodium hyaluronate,reaction in injured knees,beneficial reaction
